Read-outs that look alike come from different tables or passages of the source.
How the values were obtained:
[1] = target: PI3-Kα (Mus musculus (Mouse), UniProt P42337); experiment: PI3-Kα biochemical assay (in vitro kinase assay, fluorescence polarization); conditions: for PI3Ka Ki: Ki calculated from IC50, [ATP]=30 uM, Km=25 uM;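 on all read-outs here: Insect-cell-expressed mouse p110/p85 complex converting PI(4,5)P2, product PI(3,4,5)P3 detected by displacing TAMRA-tagged PI(3,4,5)P3 from Grip1 PH domain, lower polarization means more product, room temperature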
PI3-Kα, sequence (P42337 whole entry, the tested form may be a part): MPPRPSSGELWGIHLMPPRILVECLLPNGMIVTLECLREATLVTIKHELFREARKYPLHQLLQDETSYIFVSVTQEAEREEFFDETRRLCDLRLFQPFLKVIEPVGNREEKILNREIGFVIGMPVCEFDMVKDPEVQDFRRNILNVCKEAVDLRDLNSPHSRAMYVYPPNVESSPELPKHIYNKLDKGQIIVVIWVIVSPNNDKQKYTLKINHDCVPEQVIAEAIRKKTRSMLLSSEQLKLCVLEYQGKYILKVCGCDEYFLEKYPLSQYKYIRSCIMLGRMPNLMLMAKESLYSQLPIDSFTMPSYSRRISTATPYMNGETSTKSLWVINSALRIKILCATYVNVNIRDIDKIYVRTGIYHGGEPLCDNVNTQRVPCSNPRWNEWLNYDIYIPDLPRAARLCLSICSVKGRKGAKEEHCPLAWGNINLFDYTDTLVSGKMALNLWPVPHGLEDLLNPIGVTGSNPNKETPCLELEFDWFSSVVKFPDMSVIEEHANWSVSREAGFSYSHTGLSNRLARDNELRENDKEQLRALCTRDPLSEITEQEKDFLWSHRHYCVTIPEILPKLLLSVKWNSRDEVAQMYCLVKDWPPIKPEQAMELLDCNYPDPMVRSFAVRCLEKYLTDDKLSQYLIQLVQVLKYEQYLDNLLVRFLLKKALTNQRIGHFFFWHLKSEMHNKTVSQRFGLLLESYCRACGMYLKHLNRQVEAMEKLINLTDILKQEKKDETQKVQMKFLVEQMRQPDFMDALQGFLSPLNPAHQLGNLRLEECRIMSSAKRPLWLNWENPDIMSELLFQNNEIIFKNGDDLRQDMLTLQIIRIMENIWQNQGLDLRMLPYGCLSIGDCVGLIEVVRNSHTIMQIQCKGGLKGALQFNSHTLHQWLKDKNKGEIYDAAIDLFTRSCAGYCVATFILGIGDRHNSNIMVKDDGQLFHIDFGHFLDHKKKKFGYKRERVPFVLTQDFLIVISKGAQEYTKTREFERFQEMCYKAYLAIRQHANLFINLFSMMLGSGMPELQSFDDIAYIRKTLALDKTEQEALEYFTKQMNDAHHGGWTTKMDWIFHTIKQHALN
PI3-Kα, sequence (P26450 whole entry partner, the tested form may be a part): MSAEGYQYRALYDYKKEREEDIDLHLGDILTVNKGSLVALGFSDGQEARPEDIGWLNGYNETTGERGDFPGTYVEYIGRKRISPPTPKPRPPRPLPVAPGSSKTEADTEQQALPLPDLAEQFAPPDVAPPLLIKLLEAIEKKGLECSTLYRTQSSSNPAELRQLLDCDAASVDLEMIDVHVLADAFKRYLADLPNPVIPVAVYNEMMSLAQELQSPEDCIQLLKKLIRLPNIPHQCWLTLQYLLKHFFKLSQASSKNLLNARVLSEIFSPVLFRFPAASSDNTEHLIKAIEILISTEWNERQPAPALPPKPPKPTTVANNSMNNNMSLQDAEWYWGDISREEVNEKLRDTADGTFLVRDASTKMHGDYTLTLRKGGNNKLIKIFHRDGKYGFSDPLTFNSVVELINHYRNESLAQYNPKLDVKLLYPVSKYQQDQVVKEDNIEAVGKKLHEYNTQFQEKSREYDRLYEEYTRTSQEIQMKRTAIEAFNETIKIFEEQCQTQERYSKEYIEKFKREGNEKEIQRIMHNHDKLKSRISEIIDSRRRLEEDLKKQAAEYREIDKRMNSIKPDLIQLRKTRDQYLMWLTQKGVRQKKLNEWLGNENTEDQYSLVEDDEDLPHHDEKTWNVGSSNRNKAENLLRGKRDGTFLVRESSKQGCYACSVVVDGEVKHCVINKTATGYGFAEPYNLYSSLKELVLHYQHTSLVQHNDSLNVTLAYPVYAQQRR

[2] = tested on: PI3-K (phosphorylation of AKT at serine 473) in BT20 cells; experiment: PI3-Kα cellular assay (phospho-AKT Ser473 ELISA in BT20 cells); conditions: Homo sapiens, BT-20, 1 h;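 further: lysates read by ELISA with TMB colour at 450 nm, cells given 0.5% DMSO vehicle serve as positive control and cell-free wells as negative control, duplicate wells per concentration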
[3] = target: mTOR (Homo sapiens (Human), UniProt P42345)
mTOR, sequence (P42345 2156-2469): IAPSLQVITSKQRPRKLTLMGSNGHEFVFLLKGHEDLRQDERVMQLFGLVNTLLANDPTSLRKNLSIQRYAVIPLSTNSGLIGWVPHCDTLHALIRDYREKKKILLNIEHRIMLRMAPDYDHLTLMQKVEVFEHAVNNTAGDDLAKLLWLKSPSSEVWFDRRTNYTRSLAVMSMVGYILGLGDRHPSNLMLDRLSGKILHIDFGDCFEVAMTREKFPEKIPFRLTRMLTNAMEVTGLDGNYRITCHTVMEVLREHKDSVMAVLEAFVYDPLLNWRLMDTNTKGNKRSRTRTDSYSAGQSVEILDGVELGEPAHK

[4] = read-out: S473 pAKT 0.5% FBS IC50 (μM)
[5] = read-out: S473 pAKT 10% FBS IC50 (μM)

Row | PI3Ka Ki [1] [nM] | IC50 [2, 5] [µM] | Compound | also measured
1 | 6.09 |  | COc1ncc(-c2ccc3ncc4c(c3n2)n(-c2ccc(C(C)(C)C#N)cc2)c(=O)n4C)cn1 [Compound 112, 2-(4-(8-(2-methoxypyrimidin-5-yl)-3-methyl-2-oxo-2,3-dihydroimidazo[4,5-c][1,5]naphthyridin-1-yl)phenyl)-2-methylpropanenitrile] | IC50 [2, 4]: 0.0272 µM
2 |  |  | CCNC(=O)N1CCC(n2c(=O)n(C)c3cnc4ccc(-c5cnc6ccccc6c5)nc4c32)CC1 [Compound 124, N-ethyl-4-(3-methyl-2-oxo-8-quinolin-3-yl-2,3-dihydro-1H-imidazo[4,5-c][1,5]naphthyridin-1-yl)piperidine-1-carboxamide] | IC50 [2, 4]: 0.017 µM
3 |  | 0.0456 | COc1ncc(-c2ccc3ncc4c(c3n2)n([C@H]2CC[C@H](C(N)=O)CC2)c(=O)n4C)cn1 [Compound 157, trans-4-[8-(2-methoxypyrimidin-5-yl)-3-methyl-2-oxo-2,3-dihydro-1H-imidazo[4,5-c][1,5]naphthyridin-1-yl]cyclohexanecarboxamide] | 
4 |  | 0.224 | Cn1cc(-c2ccc3ncc4c(c3n2)n([C@H]2CC[C@H](C(N)=O)CC2)c(=O)n4C)cn1 [Compound 158, trans-4-[3-methyl-8-(1-methyl-1H-pyrazol-4-yl)-2-oxo-2,3-dihydro-1H-imidazo[4,5-c][1,5]naphthyridin-1-yl]cyclohexanecarboxamide] | 
5 |  | 0.0123 | COCC(=O)N1CCC(n2c(=O)n(C)c3cnc4ccc(-c5cnc(OC)nc5)nc4c32)CC1 [Compound 161, 1-[1-(methoxyacetyl)piperidin-4-yl]-8-(2-methoxypyrimidin-5-yl)-3-methyl-1,3-dihydro-2H-imidazo[4,5-c][1,5]naphthyridin-2-one] | 
6 | 23.3 | 0.264 | Cn1c(=O)n([C@H]2CC[C@H](O)CC2)c2c3nc(-c4cc[nH]n4)ccc3ncc21 [Compound 174, 1-(trans-4-hydroxycyclohexyl)-3-methyl-8-(1H-pyrazol-3-yl)-1,3-dihydro-2H-imidazo[4,5-c][1,5]naphthyridin-2-one] | 
7 | 28.7 | 0.175 | COc1ncc(-c2ccc3ncc4c(c3n2)n(C2CCN(C(=O)CN(C)C)CC2)c(=O)n4C)cn1 [Compound 183, 1-[1-(N,N-dimethylglycyl)piperidin-4-yl]-8-(2-methoxypyrimidin-5-yl)-3-methyl-1,3-dihydro-2H-imidazo[4,5-c][1,5]naphthyridin-2-one] | 
8 | 28.3 | 0.309 | Cn1c(=O)n(C2CCOCC2)c2c3nc(-c4ccn[nH]4)ccc3ncc21 [Compound 202, 3-methyl-8-(1H-pyrazol-5-yl)-1-(tetrahydro-2H-pyran-4-yl)-1,3-dihydro-2H-imidazo[4,5-c][1,5]naphthyridin-2-one] | 
9 | 0.264 | 0.00669 | CN(C)c1ccc(-c2ccc3ncc4c(c3n2)n(C2CCN(C(=O)C(C)(C)O)CC2)c(=O)n4C)cn1 [Compound 209, 8-[6-(dimethylamino)pyridin-3-yl]-1-[1-(2-hydroxy-2-methylpropanoyl)piperidin-4-yl]-3-methyl-1,3-dihydro-2H-imidazo[4,5-c][1,5]naphthyridin-2-one] | 
10 |  | 0.00694 | Cn1c(=O)n(C2CCOCC2)c2c3nc(-c4cnc(N)nc4)ccc3ncc21 [Compound 210, 8-(2-aminopyrimidin-5-yl)-3-methyl-1-(tetrahydro-2H-pyran-4-yl)-1,3-dihydro-2H-imidazo[4,5-c][1,5]naphthyridin-2-one] | 
11 | 45.4 | 0.428 | Cc1ccc(-c2ccc3ncc4c(c3n2)n(C2CCOCC2)c(=O)n4CCO)cn1 [Compound 218, 3-(2-hydroxyethyl)-8-(6-methylpyridin-3-yl)-1-(tetrahydro-2H-pyran-4-yl)-1,3-dihydro-2H-imidazo[4,5-c][1,5]naphthyridin-2-one] | 
12 | 57.3 |  | C[C@H](CO)n1c(=O)n(C)c2cnc3ccc(-c4cnc5ccccc5c4)nc3c21 [Compound 234, 1-[(1R)-2-hydroxy-1-methylethyl]-3-methyl-8-quinolin-3-yl-1,3-dihydro-2H-imidazo[4,5-c][1,5]naphthyridin-2-one] | 
13 |  | 0.00961 | Cn1c(=O)n([C@H]2CC[C@H](O)CC2)c2c3nc(-c4cccc5[nH]ccc45)ccc3ncc21 [Compound 236, 1-(trans-4-hydroxycyclohexyl)-8-(1H-indo1-4-yl)-3-methyl-1,3-dihydro-2H-imidazo[4,5-c][1,5]naphthyridin-2-one] | 
14 | 1.94 | 0.0815 | CNC(=O)Nc1ccc(-c2ccc3ncc4c(c3n2)n(C2CCN(C(=O)[C@H](C)O)CC2)c(=O)n4C)cc1 [Compound 244, 1-[4-(1-{1-[(2S)-2-hydroxypropanoyl]piperidin-4-yl}-3-methyl-2-oxo-2,3-dihydro-1H-imidazo[4,5-c][1,5]naphthyridin-8-yl)phenyl]-3-methylurea] | 
15 | 17.6 |  | CC(=O)N1CCC(n2c(=O)n(C)c3cnc4ccc(-c5cccc(-n6cccn6)c5)nc4c32)CC1 [Compound 247, 1-(1-acetylpiperidin-4-yl)-3-methyl-8-[3-(1H-pyrazol-1-yl)phenyl]-1,3-dihydro-2H-imidazo[4,5-c][1,5]naphthyridin-2-one] | 
16 | 0.366 | 0.0133 | Cn1c(=O)n([C@H]2CC[C@H](O)CC2)c2c3nc(-c4cnc5[nH]ncc5c4)ccc3ncc21 [Compound 268, 1-(trans-4-hydroxycyclohexyl)-3-methyl-8-(1H-pyrazolo[3,4-b]pyridin-5-yl)-1,3-dihydro-2H-imidazo[4,5-c][1,5]naphthyridin-2-one] | 
17 | 1.84 | 0.014 | COc1ccc(-c2ccc3ncc4c(c3n2)n(C2CCN(C(=O)[C@H](C)O)CC2)c(=O)n4C)cc1 [Compound 272, 1-{1-[(2S)-2-hydroxypropanoyl]piperidin-4-yl}-8-(4-methoxyphenyl)-3-methyl-1,3-dihydro-2H-imidazo[4,5-c][1,5]naphthyridin-2-one] | 
18 | 118 |  | COc1ccccc1-c1ccc2ncc3c(c2n1)n(C1CCN(C(=O)CO)CC1)c(=O)n3C [Compound 279, 1-(1-glycoloylpiperidin-4-yl)-8-(2-methoxyphenyl)-3-methyl-1,3-dihydro 2H-imidazo[4,5-c][1,5]naphthyridin-2-one] | 
19 |  |  | COc1ccccc1-c1ccc2ncc3c(c2n1)n(C1CCN(C(C)=O)CC1)c(=O)n3C [Compound 280, 1-(1-acetylpiperidin-4-yl)-8-(2-methoxyphenyl)-3-methyl-1,3-dihydro-2H-imidazo[4,5-c][1,5]naphthyridin-2-one] | Ki ([1]; read-out: PI3Ka Ki): 292 nM

Row | Compound | PI3Ka Ki [1] [nM] | IC50 [2, 5] [µM] | also measured
20 | Cn1cc(-c2ccc3ncc4c(c3n2)n(C2CCN(CC(F)(F)F)CC2)c(=O)n4C)cn1 [Compound 151, 3-methyl-8-(1-methyl-1H-pyrazol-4-yl)-1-[1-(2,2,2-trifluoroethyl)piperidin-4-yl]-1,3-dihydro-2H-imidazo[4,5-c][1,5]naphthyridin-2-one] |  | 0.195 | 
21 | COc1ncc(-c2ccc3ncc4c(c3n2)n([C@H]2CC[C@H](O)CC2)c(=O)n4C)cn1 [Compound 169, 1-(trans-4-hydroxycyclohexyl)-8-(2-methoxypyrimidin-5-yl)-3-methyl-1,3-dihydro-2H-imidazo[4,5-c][1,5]naphthyridin-2-one] |  | 1 | Ki [3]: 6.39 nM
22 | CN1CCC(n2c(=O)n(C)c3cnc4ccc(-c5ccc(N(C)C)nc5)nc4c32)CC1 [Compound 207, 8-[6-(dimethylamino)pyridin-3-yl]-3-methyl-1-(1-methylpiperidin-4-yl)-1,3-dihydro-2H-imidazo[4,5-c][1,5]naphthyridin-2-one] |  | 0.0194 | Ki [3]: 9.62 nM
23 | COc1ccc(-c2ccc3ncc4c(c3n2)n(C2CCOCC2)c(=O)n4CCO)cn1 [Compound 219, 3-(2-hydroxyethyl)-8-(6-methoxypyridin-3-yl)-1-(tetrahydro-2H-pyran-4-yl)-1,3-dihydro-2H-imidazo[4,5-c][1,5]naphthyridin-2-one] | 75.7 |  | Ki [3]: 47.2 nM
24 | CN(C)c1ccc(-c2ccc3ncc4c(c3n2)n(C2CCOCC2)c(=O)n4CCO)cn1 [Compound 222, 8-[6-(dimethylamino)pyridin-3-yl]-3-(2-hydroxyethyl)-1-(tetrahydro-2H-pyran-4-yl)-1,3-dihydro-2H-imidazo[4,5-c][1,5]naphthyridin-2-one] | 319 |  | Ki [3]: 50.1 nM
25 | C[C@H](CO)n1c(=O)n(C)c2cnc3ccc(-c4cnn(C)c4)nc3c21 [Compound 232, 1-[(1R)-2-hydroxy-1-methylethyl]-3-methyl-8-(1-methyl-1H-pyrazol-4-yl)-1,3-dihydro-2H-imidazo[4,5-c][1,5]naphthyridin-2-one] | 143 |  | Ki [3]: 521 nM
26 | CNC(=O)Nc1ccc(-c2ccc3ncc4c(c3n2)n(C2CCN(C(=O)CO)CC2)c(=O)n4C)cc1 [Compound 245, 1-{4-[1-(1-glycoloylpiperidin-4-yl)-3-methyl-2-oxo-2,3-dihydro-1H-imidazo[4,5-c][1,5]naphthyridin-8-yl]phenyl}-3-methylurea] | 2.19 |  | Ki [3]: 2.03 nM
27 | Cn1c(=O)n(C2CCN(C(=O)CO)CC2)c2c3nc(-c4ccnc5[nH]ncc45)ccc3ncc21 [Compound 252, 1-(1-glycoloylpiperidin-4-yl)-3-methyl-8-(1H-pyrazolo[3,4-b]pyridin-4-yl)-1,3-dihydro-2H-imidazo[4,5-c][1,5]naphthyridin-2-one] | 0.832 |  | Ki [3]: 1.77 nM
28 | COc1ccc(-c2ccc3ncc4c(c3n2)n(CCN2CCOCC2)c(=O)n4C)cn1 [Compound 269, 8-(6-methoxypyridin-3-yl)-3-methyl-1-(2-morpholin-4-ylethyl)-1,3-dihydro-2H-imidazo[4,5-c][1,5]naphthyridin-2-one] | 12.2 |  | Ki [3]: 27.8 nM
